Results: publication PMC9288506, “Compounds activating VCP D1 ATPase enhance both autophagic and proteasomal neurotoxic protein clearance” (Nature Communications, 2022)

Biological target: T1, VCP (p97, Valosin-containing protein) (Homo sapiens, UniProt P55072)
T1 construct: Full-length VCP (6xHis-tag)
Experiment: SPR
Type: binding

T1 sequence (P55072 2-806): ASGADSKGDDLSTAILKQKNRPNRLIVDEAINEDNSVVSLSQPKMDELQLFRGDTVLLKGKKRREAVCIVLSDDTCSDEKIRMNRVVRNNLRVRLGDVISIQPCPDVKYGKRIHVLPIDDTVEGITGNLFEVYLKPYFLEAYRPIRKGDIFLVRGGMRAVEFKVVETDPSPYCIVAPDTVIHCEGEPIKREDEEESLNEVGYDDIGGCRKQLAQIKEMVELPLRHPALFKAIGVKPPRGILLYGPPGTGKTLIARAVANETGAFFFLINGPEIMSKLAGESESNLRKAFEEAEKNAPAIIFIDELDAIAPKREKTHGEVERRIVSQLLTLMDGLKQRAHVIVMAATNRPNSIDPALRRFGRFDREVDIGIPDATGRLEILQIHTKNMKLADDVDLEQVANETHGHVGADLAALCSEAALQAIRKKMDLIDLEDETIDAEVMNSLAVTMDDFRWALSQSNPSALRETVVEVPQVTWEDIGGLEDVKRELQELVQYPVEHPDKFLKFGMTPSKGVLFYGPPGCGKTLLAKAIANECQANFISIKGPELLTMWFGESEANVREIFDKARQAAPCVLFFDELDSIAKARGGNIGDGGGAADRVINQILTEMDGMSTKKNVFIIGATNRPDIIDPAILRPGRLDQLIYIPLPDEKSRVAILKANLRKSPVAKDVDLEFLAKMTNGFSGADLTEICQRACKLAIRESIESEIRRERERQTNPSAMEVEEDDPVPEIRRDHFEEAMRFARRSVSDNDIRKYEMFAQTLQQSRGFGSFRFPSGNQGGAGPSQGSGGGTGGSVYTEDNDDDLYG

Row | Compound | Kd
1 | COc1cccc2c(NCc3ccccc3)nc(-n3c(N)nc4ccccc43)nc12 [ML240] | 230 ± 30 nM
2 | Nc1ncnc2c1ncn2[C@@H]1O[C@H](COP(=O)(O)OP(=O)(O)O)[C@@H](O)[C@H]1O [ADP] | ~800 nM
